In patent US9573907B2, “2, 4-pyrimidine derivatives and use thereof” (SNU R&DB FOUNDATION, priority 2009, dated 2017):

What was measured:
[1] = molecular target: T1, interaction of gp96 with KDELR1 (Mus musculus, UniProt P08113); assay: Co-immunoprecipitation of gp96 with KDELR1 in RAW24.7 cells; assay type: cell-based; conditions: 10 μM, 24 h
T1 construct: endogenous in cells; host or cells: RAW24.7 (RAW264.7) cells
Description: (§1) FIGS. 1 to 9 represent suppression of cell surface gp96 by GPM1 reduces DC maturation and B220^+ population in gp96tm transgenic mice. (FIG. 1) Chemical structure of GPM1 (Formula 2) and negative control (NC1, Formula 16) used in this study. (FIG. 2) The dose-dependent effect of GPM1 or NC1 on the AIMP1-gp96 interaction using ELISA method as described. The indicated concentrations of the two compounds and biotin-conjugated murine gp96 were added to AIMP1 coated on the surface of microtiter wells, and gp96 bound to AIMP1 was detected with strepavidin-conjugated peroxidase. (FIG. 3) The binding of GPM1 to gp96 was examined by surface plasmon resonance (SPR). GPM1 at the indicated concentrations was injected to immobilized gp96 and the binding was measured using Biacore 3000. The response data were processed using data from a reference surface and buffer injections. Each concentration was tested in triplicate. (FIG. 4) RAW24.7 cells were treated with 10 μM GPM1 for 24 h. Cell lysates were immunoprecipitated with control IgG or anti-gp96 antibody and the immunoprecipitated proteins were immunoblotted with anti-KDELR1, antiAIMP1 and gp96 antibodies. WCL means whole cell lysate. […] TNFα secreted from BMDCs was quantified by ELISA. […]

gp96 Y731F = molecular target: T2, gp96 Y731F (Homo sapiens, UniProt P14625, Y735F); assay: Surface plasmon resonance, GPM1 binding to gp96 mutant Y731F
T2 construct: made in house; host or cells: Escherichia coli BL21 (DE3)
Description: Human gp96 was expressed as His tag fusion protein in Escherichia coli BL21 (DE3) and purified by nickel affinity chromatography. His-tagged human gp96 was immobilized onto CM5 sensor chips using standard amine coupling2. PBS was used as a running buffer. The carboxymethyl dextran surface within one side of the flow cell was activated with a 7-min injection of a 1:1 ratio of 0.4M EDC and 0.1M NHS. The protein was coupled to the surface with a 7-min injection of gp96 diluted in 10 mM sodium acetate, pH 3.7. Remaining activated groups were blocked with a 7-min injection of 1.0M ethanolamine, pH 8.5. GPM1 compound was dissolved directly in the PBS running buffer containing 1% DMSO and injected at a flow rate of 20 μl/min at 25° C. and the binding was determined by the change in resonance units (RU). The compound concentration varied from 10 nM to 25 μM and each concentration was tested at least three times. All of the bound complexes dissociated back to baseline within a reasonable time frame. Therefore, no regeneration was required. Sensorgram was processed by subtracting the binding response recorded from the control surface, followed by subtracting an average of the buffer blank injections from the reaction spot. To determine kinetic rate constants, all data sets were fit to a simple 1:1 binding with drifting baseline model using BIAevaluation program.
The present inventors compared the dose-dependent effect of GPM1 and NC1 on the interaction of gp96 and AIMP1 using ELISA. […] The present inventors monitored the binding kinetics of GPM1 to gp96 or AIMP1 by surface plasmon resonance (SPR) using BIAcore 3000. […] To further define the GPM1 binding region of gp96 (Han, J. M., Park, S. G., Liu, B., Park, B. J., Kim, J. Y., Jin, C. H., Song, Y. W., Li, Z. & Kim, S. Am. J. Pathol. 170, 2042-2054 (2007)), the present inventors introduced point mutations at L707, V706, V712, L713, F714, Y731 and M738 that are located within AIMP1 binding region of gp96 and monitored how the mutations at these sites would affect the binding of GPM1 to gp96 using SPR method.

bone marrow-derived DCs = assay: DC maturation assay (secreted TNFα); assay type: cell-based, mice; conditions: AIMP1−/− splenocytes pretreated 10 μM, 24 h; compared to NC1
Description: as §1

T2 sequence (P14625 22-803 Y735F): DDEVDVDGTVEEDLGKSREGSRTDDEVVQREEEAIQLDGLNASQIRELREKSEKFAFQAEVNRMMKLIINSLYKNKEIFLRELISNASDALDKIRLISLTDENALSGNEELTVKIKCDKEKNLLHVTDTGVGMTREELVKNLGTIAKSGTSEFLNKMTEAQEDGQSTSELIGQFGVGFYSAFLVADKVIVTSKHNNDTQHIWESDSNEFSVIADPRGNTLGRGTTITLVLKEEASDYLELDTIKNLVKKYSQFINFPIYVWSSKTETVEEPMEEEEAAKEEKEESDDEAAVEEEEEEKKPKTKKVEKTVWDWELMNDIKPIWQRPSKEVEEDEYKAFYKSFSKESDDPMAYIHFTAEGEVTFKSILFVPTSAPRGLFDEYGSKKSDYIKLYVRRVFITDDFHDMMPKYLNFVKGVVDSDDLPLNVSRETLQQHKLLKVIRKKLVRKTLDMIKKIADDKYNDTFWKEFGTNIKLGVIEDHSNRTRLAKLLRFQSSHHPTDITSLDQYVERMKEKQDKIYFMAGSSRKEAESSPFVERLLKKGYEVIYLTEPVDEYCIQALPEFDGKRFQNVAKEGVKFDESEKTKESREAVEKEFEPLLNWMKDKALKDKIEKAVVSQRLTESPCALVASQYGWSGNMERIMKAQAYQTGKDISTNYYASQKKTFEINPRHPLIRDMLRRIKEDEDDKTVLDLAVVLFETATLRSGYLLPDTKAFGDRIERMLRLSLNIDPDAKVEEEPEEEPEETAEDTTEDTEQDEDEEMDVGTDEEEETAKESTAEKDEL
T1 sequence (P08113 22-802): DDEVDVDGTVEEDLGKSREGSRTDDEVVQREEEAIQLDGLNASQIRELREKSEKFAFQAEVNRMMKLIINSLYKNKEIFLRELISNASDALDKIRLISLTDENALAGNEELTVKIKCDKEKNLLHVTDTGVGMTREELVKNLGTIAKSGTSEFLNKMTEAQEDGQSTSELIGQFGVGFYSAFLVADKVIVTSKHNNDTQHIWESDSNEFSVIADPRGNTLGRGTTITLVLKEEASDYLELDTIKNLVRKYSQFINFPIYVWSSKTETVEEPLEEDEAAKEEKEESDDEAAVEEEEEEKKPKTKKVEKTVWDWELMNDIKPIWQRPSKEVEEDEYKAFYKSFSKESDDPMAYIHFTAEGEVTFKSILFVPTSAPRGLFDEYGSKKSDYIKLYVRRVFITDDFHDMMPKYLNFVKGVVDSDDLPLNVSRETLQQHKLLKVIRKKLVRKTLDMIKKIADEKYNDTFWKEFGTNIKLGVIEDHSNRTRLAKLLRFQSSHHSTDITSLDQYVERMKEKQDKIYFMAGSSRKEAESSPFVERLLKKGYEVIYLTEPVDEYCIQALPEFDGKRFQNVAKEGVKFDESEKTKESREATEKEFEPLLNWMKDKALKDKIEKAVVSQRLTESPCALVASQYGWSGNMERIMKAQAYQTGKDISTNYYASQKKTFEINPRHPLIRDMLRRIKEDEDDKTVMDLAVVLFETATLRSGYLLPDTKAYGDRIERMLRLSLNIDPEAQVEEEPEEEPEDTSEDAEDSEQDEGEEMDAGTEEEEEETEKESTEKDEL

COC(=O)[C@@H](Oc1nc(OC)cc(OC)n1)C(C)C [GPM1, (S)-methyl 2-(4,6-dimethoxypyrimidin-2-yloxy)-3-methylbutanoate]
interaction of gp96 with KDELR1 ([1]; RAW24.7 cells, co-immunoprecipitation): increased | cellular levels of gp96, KDER1 and AIMP1 ([1]; whole cell lysate): did not affect | Kd (gp96 Y731F): 0.73 µM | koff (dissociation rate constant) (gp96 Y731F): 0.0149 s⁻¹ | kon (gp96 Y731F; read-out: Ka): 20400 M⁻¹ s⁻¹ | amount of secreted TNF-α (bone marrow-derived DCs): significantly reduced
